Laboratory results: PubChem BioAssay AID2060901 (Molecular Pharmacology Branch, DTP, NCI, 2025)

Test system: 422866-222-R5-J1-PDC complex spheroids viability
Assay: Anticancer human tumor 422866-222-R5-J1-PDC patient-derived pancreatic adenocarcinoma cell line growth inhibition [RAS]
Conditions: for IC50: curve of first compound; for viability, T/C: stronger effect = lower value
Procedure, shortened: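 Tumour cells grown as complex spheroids with HUVEC endothelial cells and mesenchymal stem cells, treated with RAS pathway inhibitor combinations. Each agent spans half-log steps from near clinical Cmax, or 10 microM where Cmax is unknown.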

[1] = second compound 0.00316 µM, first compound 0.00316 µM
[2] = second compound 0.00316 µM, first compound 0.01 µM
[3] = second compound 0.00316 µM, first compound 0.0316 µM
[4] = second compound 0.00316 µM, first compound 0.1 µM
[5] = second compound 0.00316 µM, first compound 0.316 µM
[6] = second compound 0.00316 µM, first compound 1 µM
[7] = second compound 0.01 µM, first compound 0.00316 µM
[8] = second compound 0.01 µM, first compound 0.01 µM
[9] = second compound 0.01 µM, first compound 0.0316 µM
[10] = second compound 0.01 µM, first compound 0.1 µM
[11] = second compound 0.01 µM, first compound 0.316 µM
[12] = second compound 0.01 µM, first compound 1 µM
[13] = second compound 0.0316 µM, first compound 0.00316 µM
[14] = second compound 0.0316 µM, first compound 0.01 µM
[15] = second compound 0.0316 µM, first compound 0.0316 µM
[16] = second compound 0.0316 µM, first compound 0.1 µM
[17] = second compound 0.0316 µM, first compound 0.316 µM
[18] = second compound 0.0316 µM, first compound 1 µM
[19] = second compound 0.1 µM, first compound 0.00316 µM
[20] = second compound 0.1 µM, first compound 0.01 µM
[21] = second compound 0.1 µM, first compound 0.0316 µM
[22] = second compound 0.1 µM, first compound 0.1 µM
[23] = second compound 0.1 µM, first compound 0.316 µM
[24] = second compound 0.1 µM, first compound 1 µM
[25] = second compound 0.316 µM, first compound 0.00316 µM
[26] = second compound 0.316 µM, first compound 0.01 µM
[27] = second compound 0.316 µM, first compound 0.0316 µM
[28] = second compound 0.316 µM, first compound 0.1 µM
[29] = second compound 0.316 µM, first compound 0.316 µM
[30] = second compound 0.316 µM, first compound 1 µM
[31] = second compound 1 µM, first compound 0.00316 µM
[32] = second compound 1 µM, first compound 0.01 µM
[33] = second compound 1 µM, first compound 0.0316 µM
[34] = second compound 1 µM, first compound 0.1 µM
[35] = second compound 1 µM, first compound 0.316 µM
[36] = second compound 1 µM, first compound 1 µM
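Also: spheroids exposed to compounds for 7 days.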
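For viability, T/C in this document: 100% = DMSO vehicle control viability.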

`C=CC(=O)Nc1cc(Nc2nccc(-c3cn(C)c4ccccc34)n2)c(OC)cc1N(C)CCN(C)C` + C=CC(=O)N1CCN(c2nc(OCC3CCCN3C)nc3c(F)c(-c4nc(N)cc(C)c4C(F)(F)F)c(Cl)cc23)C(C)C1 gave an IC50 (second compound 0.00316 µM) of less than 3.16 nM, an IC50 (second compound 0.01 µM) of less than 3.16 nM and an IC50 (second compound 0.0316 µM) of less than 3.16 nM. It also gave an IC50 (second compound 0.1 µM) of less than 3.16 nM, an IC50 (second compound 0.316 µM) of less than 3.16 nM and an IC50 (second compound 1 µM) of less than 3.16 nM. It also gave a viability, T/C [1] of 26.3%, a viability, T/C [2] of 28.2% and a viability, T/C [3] of 29%. The viability, T/C [4] was 28%, the viability, T/C [5] was 18.5% and the viability, T/C [6] was 12.4%. It also gave a viability, T/C [7] of 34.1%, a viability, T/C [8] of 21.1% and a viability, T/C [9] of 20.5%. The viability, T/C [10] was 19.8%, the viability, T/C [11] was 17.3% and the viability, T/C [12] was 12.3%. For the same compound, the viability, T/C [13] was 33.4%, the viability, T/C [14] was 26.3% and the viability, T/C [15] was 21.5%. The viability, T/C [16] was 16.5%, the viability, T/C [17] was 17% and the viability, T/C [18] was 12.2%. The viability, T/C [19] was 22.8%, the viability, T/C [20] was 21.9% and the viability, T/C [21] was 17.3%. The viability, T/C [22] was 17.6%, the viability, T/C [23] was 16.6% and the viability, T/C [24] was 11.9%. It also gave a viability, T/C [25] of 19.7%, a viability, T/C [26] of 21.4% and a viability, T/C [27] of 20%. For the same compound, the viability, T/C [28] was 21.8%, the viability, T/C [29] was 18.1% and the viability, T/C [30] was 14.2%. It also gave a viability, T/C [31] of 20.5%, a viability, T/C [32] of 20.8% and a viability, T/C [33] of 22.7%. For the same compound, the viability, T/C [34] was 20.9%, the viability, T/C [35] was 18.6% and the viability, T/C [36] was 12.4%.

`Nc1ccn(C2OC(CO)C(O)C2(F)F)c(=O)n1` (stereo unspecified) + CCn1c(-c2cc(N3CCN(C)CC3)cnc2C(C)OC)c2c3cc(ccc31)-c1csc(n1)CC(NC(=O)C1CC1C)C(=O)N1CCCC(N1)C(=O)OCC(C)(C)C2 gave an IC50 (second compound 0.000949 µM) of less than 3.16 nM, an IC50 (second compound 0.003 µM) of less than 3.16 nM and an IC50 (second compound 0.00949 µM) of less than 3.16 nM. For the same compound, the IC50 (second compound 0.03 µM) was less than 3.16 nM, the IC50 (second compound 0.0949 µM) was less than 3.16 nM and the IC50 (second compound 0.3 µM) was less than 3.16 nM. It also gave a viability, T/C (second compound 0.000949 µM, first compound 0.00316 µM) of 30.8%, a viability, T/C (second compound 0.000949 µM, first compound 0.01 µM) of 27.9% and a viability, T/C (second compound 0.000949 µM, first compound 0.0316 µM) of 25.3%. For the same compound, the viability, T/C (second compound 0.000949 µM, first compound 0.1 µM) was 24.1%, the viability, T/C (second compound 0.000949 µM, first compound 0.316 µM) was 22.2% and the viability, T/C (second compound 0.000949 µM, first compound 1 µM) was 19.4%. It also gave a viability, T/C (second compound 0.003 µM, first compound 0.00316 µM) of 25.6%, a viability, T/C (second compound 0.003 µM, first compound 0.01 µM) of 23.5% and a viability, T/C (second compound 0.003 µM, first compound 0.0316 µM) of 20.5%. The viability, T/C (second compound 0.003 µM, first compound 0.1 µM) was 16.5%, the viability, T/C (second compound 0.003 µM, first compound 0.316 µM) was 18.6% and the viability, T/C (second compound 0.003 µM, first compound 1 µM) was 17.4%. For the same compound, the viability, T/C (second compound 0.00949 µM, first compound 0.00316 µM) was 20.4%, the viability, T/C (second compound 0.00949 µM, first compound 0.01 µM) was 21.1% and the viability, T/C (second compound 0.00949 µM, first compound 0.0316 µM) was 20.4%. It also gave a viability, T/C (second compound 0.00949 µM, first compound 0.1 µM) of 16.3%, a viability, T/C (second compound 0.00949 µM, first compound 0.316 µM) of 15.2% and a viability, T/C (second compound 0.00949 µM, first compound 1 µM) of 15.8%. It also gave a viability, T/C (second compound 0.03 µM, first compound 0.00316 µM) of 18.9%, a viability, T/C (second compound 0.03 µM, first compound 0.01 µM) of 20.1% and a viability, T/C (second compound 0.03 µM, first compound 0.0316 µM) of 17.4%. It also gave a viability, T/C (second compound 0.03 µM, first compound 0.1 µM) of 16.1%, a viability, T/C (second compound 0.03 µM, first compound 0.316 µM) of 15.8% and a viability, T/C (second compound 0.03 µM, first compound 1 µM) of 14.7%. For the same compound, the viability, T/C (second compound 0.0949 µM, first compound 0.00316 µM) was 19.3%, the viability, T/C (second compound 0.0949 µM, first compound 0.01 µM) was 20.8% and the viability, T/C (second compound 0.0949 µM, first compound 0.0316 µM) was 16.7%. For the same compound, the viability, T/C (second compound 0.0949 µM, first compound 0.1 µM) was 15.6%, the viability, T/C (second compound 0.0949 µM, first compound 0.316 µM) was 16.6% and the viability, T/C (second compound 0.0949 µM, first compound 1 µM) was 16.4%. The viability, T/C (second compound 0.3 µM, first compound 0.00316 µM) was 20%, the viability, T/C (second compound 0.3 µM, first compound 0.01 µM) was 20.4% and the viability, T/C (second compound 0.3 µM, first compound 0.0316 µM) was 18.5%. The viability, T/C (second compound 0.3 µM, first compound 0.1 µM) was 18.7%, the viability, T/C (second compound 0.3 µM, first compound 0.316 µM) was 18.9% and the viability, T/C (second compound 0.3 µM, first compound 1 µM) was 15.4%.

In the case of `O=C(c1ccc(F)c(F)c1Nc1ccc(I)cc1F)N1CC(O)([C@@H]2CCCCN2)C1` + C=CC(=O)N1CCN(c2nc(OCC3CCCN3C)nc3c(F)c(-c4nc(N)cc(C)c4C(F)(F)F)c(Cl)cc23)C(C)C1, the IC50 (second compound 0.00316 µM) is reported as less than 3.16 nM, the IC50 (second compound 0.01 µM) is reported as less than 3.16 nM and the IC50 (second compound 0.0316 µM) is reported as less than 3.16 nM. For the same compound, the IC50 (second compound 0.1 µM) was less than 3.16 nM, the IC50 (second compound 0.316 µM) was less than 3.16 nM and the IC50 (second compound 1 µM) was less than 3.16 nM. The viability, T/C [1] was 27.3%, the viability, T/C [2] was 29% and the viability, T/C [3] was 20.7%. The viability, T/C [4] was 18.1%, the viability, T/C [5] was 16.6% and the viability, T/C [6] was 17.1%. It also gave a viability, T/C [7] of 39.6%, a viability, T/C [8] of 22.1% and a viability, T/C [9] of 21.8%. It also gave a viability, T/C [10] of 15.2%, a viability, T/C [11] of 17% and a viability, T/C [12] of 12.9%. The viability, T/C [13] was 28.7%, the viability, T/C [14] was 24.2% and the viability, T/C [15] was 18.3%. The viability, T/C [16] was 14.5%, the viability, T/C [17] was 17.8% and the viability, T/C [18] was 14.6%. For the same compound, the viability, T/C [19] was 22.3%, the viability, T/C [20] was 18.9% and the viability, T/C [21] was 17.4%. The viability, T/C [22] was 13.8%, the viability, T/C [23] was 14.9% and the viability, T/C [24] was 14.3%. The viability, T/C [25] was 18%, the viability, T/C [26] was 18.2% and the viability, T/C [27] was 20.1%. It also gave a viability, T/C [28] of 12.6%, a viability, T/C [29] of 16.4% and a viability, T/C [30] of 14.1%. The viability, T/C [31] was 19.7%, the viability, T/C [32] was 17.7% and the viability, T/C [33] was 18.5%. The viability, T/C [34] was 15%, the viability, T/C [35] was 14.8% and the viability, T/C [36] was 16.1%.
